The values below come from the NIST ThermoML archive (doi:10.1021/acs.jced.7b00819).

± gives the expanded uncertainty stated by the source.

Series [1] in a line: Molar enthalpy of transition or fusion. The conditions noted are these: Crystal; DSC.
The conditions of series [2]: Crystal; DTA.

Take `CCOC(=O)C1=NN(c2ccc(Cl)cc2Cl)[C@](C)(C(=O)OCC)C1`: the “Molar enthalpy of transition or fusion” value in series [1] was found to be 5.88 ± 0.263 kcal/mol. Also, the Normal melting temperature in series [2] turned out to be 30.5 ± 0.7 °C.
Taken in the same sequence, the figures for `CCOC(=O)C1=NN(c2ccc(Cl)cc2Cl)C(C)(C(=O)OCC)C1` (centres undefined) were 4.4 ± 0.239 kcal/mol and 49.2 ± 0.7 °C.
